Assays:
[1] = Inhibition of PARP1 in human Jurkat cells assessed as reduction of cell viability after 96 hrs by MTS assay
[2] = Inhibition of PARP1 in human Jurkat cells assessed as reduction of cell viability after 96 hrs by MTS assay in presence of 100 uM of temozolomide

Structure (SMILES)	EC50 [1]	EC50 [2]
CCOc1cc(CN2CCN(c3ccc(C(=O)NC4CC4)cc3C)CC2)cc2c1OC(C)C(=O)N2 (configuration not stated)	100 µM	0.02 µM
CCNC(=O)c1ccc(N2CCN(Cc3cc4c(c(OCC)c3)OC(C)C(=O)N4)CC2)c(C)c1 (configuration not stated)	100 µM	0.02 µM
CCOc1cc(CN2CCN(c3ccc(C(=O)NC)cc3C)CC2)cc2c1OC(C)C(=O)N2 (configuration not stated)	26 µM	0.02 µM
COc1cc(CN2CCN(c3ccc(C(=O)NC4CC4)cc3C)CC2)cc2c1OC(C)C(=O)N2 (configuration not stated)	77 µM	0.02 µM
CCNC(=O)c1ccc(N2CCN(Cc3cc4c(c(OC)c3)OC(C)C(=O)N4)CC2)c(C)c1 (configuration not stated)	44 µM	0.01 µM
CNC(=O)c1ccc(N2CCN(Cc3cc4c(c(OC)c3)OC(C)C(=O)N4)CC2)c(C)c1 (configuration not stated)	100 µM	0.06 µM
Cc1cc(C(=O)NC2CC2)ccc1N1CCN(Cc2cc(C)c3c(c2)NC(=O)C(C)O3)CC1 (configuration not stated)	100 µM	18 µM
CCNC(=O)c1ccc(N2CCN(Cc3cc(C)c4c(c3)NC(=O)C(C)O4)CC2)c(C)c1 (configuration not stated)	55 µM	9 µM
CNC(=O)c1ccc(N2CCN(Cc3cc(C)c4c(c3)NC(=O)C(C)O4)CC2)c(C)c1 (configuration not stated)	78 µM	9 µM
CCNC(=O)c1ccc(N2CCN(Cc3cc(C)c4c(c3)NC(=O)C(C)O4)CC2)cc1 (configuration not stated)	94 µM	9 µM
CNC(=O)c1ccc(N2CCN(Cc3cc(C)c4c(c3)NC(=O)C(C)O4)CC2)cc1 (configuration not stated)	75 µM	11 µM
CCNC(=O)c1ccc(N2CCN(Cc3ccc4c(c3)NC(=O)C(C)O4)CC2)c(Cl)c1 (configuration not stated)	100 µM	4 µM
CCNC(=O)c1ccc(N2CCN(Cc3ccc4c(c3)NC(=O)C(C)O4)CC2)cc1 (configuration not stated)	42 µM	15 µM
CNC(=O)c1ccc(N2CCN(Cc3ccc4c(c3)NC(=O)C(C)O4)CC2)cc1 (configuration not stated)	14 µM	15 µM
Cc1cc(CN2CCN(c3ccc(C(=O)NC4CC4)cc3Cl)CC2)cc2c1OC(C)C(=O)N2 (configuration not stated)	43 µM	0.01 µM
CCNC(=O)c1ccc(N2CCN(Cc3cc(C)c4c(c3)NC(=O)C(C)O4)CC2)c(Cl)c1 (configuration not stated)	47 µM	14 µM
CNC(=O)c1ccc(N2CCN(Cc3cc(C)c4c(c3)NC(=O)C(C)O4)CC2)c(Cl)c1 (configuration not stated)	45 µM	14 µM
COc1cc(CN2CCN(c3ccc(C(=O)NC4CC4)cc3)CC2)cc2c1OC(C)C(=O)N2 (configuration not stated)	162 µM	16 µM
CCNC(=O)c1ccc(N2CCN(Cc3cc4c(c(OC)c3)OC(C)C(=O)N4)CC2)cc1 (configuration not stated)	151 µM	16 µM
CNC(=O)c1ccc(N2CCN(Cc3cc4c(c(OC)c3)OC(C)C(=O)N4)CC2)cc1 (configuration not stated)	251 µM	27 µM
Cc1cc(CN2CCN(c3ccc(C(=O)NC4CC4)cc3)CC2)cc2c1OC(C)C(=O)N2 (configuration not stated)	100 µM	5 µM
